Source: EPA's ToxValDB 9.5 (doi:10.2903/j.efsa.2015.3958)

Tests used:
[1] = test system: Hypoaspis aculeifer; settings: acute; duration: 14 days
[2] = test system: Daphnia magna; settings: chronic/long-term; duration: 21 days; reproduction
[3] = test system: Colinus virginianus
[4] = test system: Rattus norvegicus
[5] = test system: Tagia sp.
[6] = test system: Folsomia candida; settings: chronic/long-term; duration: 28 days
[7] = test system: Pimephales promelas; settings: chronic/long-term; duration: 32 days; growth
[8] = test system: Apis mellifera; settings: acute; oral; unspecified; mortality

With COc1nc(C)nc(NC(=O)NS(=O)(=O)c2ccccc2OCCCl)n1 [Triasulfuron] the NOEC [1] was 100 mg/kg, the NOEC [2] was 10 mg/L and the LC50 ([3]; acute, oral, diet, mortality) was greater than 5000 mg/kg. For the same compound, the LD50 ([3]; acute, oral, mortality) was greater than 2150 mg/kg, the NOEL ([3]; reproduction developmental) was 94 mg/kg-day and the LD50 ([4]; acute, mortality) was greater than 5000 mg/kg. The NOAEL ([4]; chronic) was 50 mg/kg-day, the LC50 ([5]; acute, duration: 14 days, mortality) was greater than 1000 mg/kg and the NOEC ([5]; chronic/long-term, duration: 8 weeks) was 50.8 mg/kg. It also gave an NOEC [6] of 100 mg/kg, an NOEC [7] of 36.6 mg/L and an LD50 [8] greater than 100 µg/piece.
